Results: BindingDB's records for doi:10.1016/j.bmcl.2020.126965 (Australian National University, 2020)

Biological target: Nonstructural protein 3 (Zika virus, UniProt A0A024AXB9)
Test: Binding affinity to Zika virus NS2B-NS3 protease

Chain of Nonstructural protein 3 (A0A024AXB9 whole entry): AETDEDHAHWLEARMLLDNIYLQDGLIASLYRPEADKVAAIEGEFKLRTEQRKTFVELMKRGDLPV

EC50: 1930 nM
SMILES: CC1=CCC(C(=O)/N=C2\CC=C(S(=O)(=O)O)c3cc(S(=O)(=O)O)cc(S(=O)(=O)O)c32)=C/C1=N/C(=O)C1=CC=C/C(=N\C(=O)/N=C2\C=CC=C(C(=O)/N=C3/CC(C(=O)/N=C4\CC=C(S(=O)(=O)O)c5cc(S(=O)(=O)O)cc(S(=O)(=O)O)c54)=CC=C3C)C2)C1
